Measurements published in US6537986B2, “Oxazolidinone antibacterial agents having a thiocarbonyl funtionality” (Pharmacia & Upjohn Company, priority 1997, dated 2003).
Values after ≈ are worked out from the molar mass of the structure shown. Read-outs that look alike come from different tables or passages of the source.

Assays:
[1] = system: S. epidermidis (SEPI 30593); experiment: MIC, standard agar dilution method; format: cell-based; conditions: Staphylococcus epidermidis, Table II, Mueller Hinton agar, incubated overnight at 35° C.
Experimental: (§1) MIC Test Method The in vitro MICs of test compounds were determined by a standard agar dilution method. […] Serial 2-fold dilutions of each sample are made using 1.0 ml aliquots of sterile distilled water. To each 1.0 ml aliquot of drug is added 9 ml of molten Mueller Hinton agar medium. The drug-supplemented agar is mixed, poured into 15×100 mm petri dishes, and allowed to solidify and dry prior to inoculation. Vials of each of the test organisms are maintained frozen in the vapor phase of a liquid nitrogen freezer. Test cultures are grown overnight at 35° C. on the medium appropriate for the organism. Colonies are harvested with a sterile swab, and cell suspensions are prepared in Trypticase Soy broth (TSB) to equal the turbidity of a 0.5 McFarland standard. A 1:20 dilution of each suspension is made in TSB. […] The plates are incubated overnight at 35° C. Following incubation the Minimum Inhibitory Concentration (MIC μg/ml), the lowest concentration of drug that inhibits visible growth of the organism, is read and recorded.

[2] = system: Enterococcus faecalis (EFAE 9217); experiment: MIC, standard agar dilution method; format: cell-based; conditions: incubated overnight at 35° C.
Experimental: as §1

E. Faecium (EFAE 12712) = experiment: MIC, standard agar dilution method; format: cell-based; conditions: Enterococcus faecium; Table II; key: E. Faecium; agar dilution, Mueller Hinton agar, incubated overnight at 35° C.; read-out: EFAE 12712 MIC
Experimental: as §1

[3] = system: Haemophilus influenzae (HINF 30063); experiment: MIC, standard agar dilution method; format: cell-based; conditions: Haemophilus influenzae, Table II, Mueller Hinton agar, incubated overnight at 35° C.
Experimental: as §1

[4] = system: Moraxella catarrhalis (MCAT 30610); experiment: MIC, standard agar dilution method; format: cell-based; conditions: Moraxella catarrhalis, Table II, Mueller Hinton agar, incubated overnight at 35° C.
Experimental: as §1

S. aureus (SAUR 9213) = experiment: MIC, standard agar dilution method; format: cell-based; conditions: Staphylococcus aureus, incubated overnight at 35° C.
Experimental: as §1

S. pyogenes (SPYO 152) = experiment: MIC, standard agar dilution method; format: cell-based; conditions: Streptococcus pyogenes, incubated overnight at 35° C.
Experimental: as §1

[5] = system: S. pneumoniae (SPNE 9912); experiment: MIC, standard agar dilution method; format: cell-based; conditions: Streptococcus pneumoniae, incubated overnight at 35° C.
Experimental: as §1

[6] = system: S. epidermidis (SEPI 12084); experiment: MIC, standard agar dilution method; format: cell-based; conditions: Staphylococcus epidermidis, Table 1, Mueller Hinton agar, incubated overnight at 35° C., read-out: Oxazolidinone MIC Values (Gram+) SEPI 12084
Experimental: MIC Test Method The in vitro MICs of test compounds were determined by a standard agar dilution method. A stock drug solution of each analog is prepared in the preferred solvent, usually DMSO:H2O (1:3). Serial 2-fold dilutions of each sample are made using 1.0 ml aliquots of sterile distilled water. To each 1.0 ml aliquot of drug is added 9 ml of molten Mueller Hinton agar medium. The drug-supplemented agar is mixed, poured into 15×100 mm petri dishes, and allowed to solidify and dry prior to inoculation. Vials of each of the test organisms are maintained frozen in the vapor phase of a liquid nitrogen freezer. Test cultures are grown overnight at 35° C. on the medium appropriate for the organism. Colonies are harvested with a sterile swab, and cell suspensions are prepared in Trypticase Soy broth (TSB) to equal the turbidity of a 0.5 McFarland standard. A 1:20 dilution of each suspension is made in TSB. […] The plates are incubated overnight at 35° C. Following incubation the Minimum Inhibitory Concentration (MIC μg/ml), the lowest concentration of drug that inhibits visible growth of the organism, is read and recorded.

[7] = Enterococcus faecalis, Table 1, Mueller Hinton agar, read-out: Oxazolidinone MIC Values (Gram+) EFAE 9217
[8] = Table II, key: Enterococcus faecalis, Mueller Hinton agar, read-out: EFAE 9217 MIC
[9] = Table 1, Mueller Hinton agar, read-out: Oxazolidinone MIC Values (Gram+) SAUR 9213
[10] = Table II, Mueller Hinton agar, read-out: SAUR 9213 MIC
[11] = Table 1, Mueller Hinton agar, read-out: Oxazolidinone MIC Values (Gram+) SPYO 152
[12] = Table II, Mueller Hinton agar, read-out: SPYO 152 MIC
[13] = Table 1, Mueller Hinton agar, read-out: Oxazolidinone MIC Values (Gram+) SPNE 9912
[14] = Table II, Mueller Hinton agar, read-out: SPNE 9912 MIC

SMILES	melting point	MIC [1] [µg/mL]	MIC [2, 7] [µg/mL]	MIC [2, 8] [µg/mL]	MIC (E. Faecium (EFAE 12712)) [µg/mL]	MIC [3] [µg/mL]	MIC [4] [µg/mL]	MIC (S. aureus (SAUR 9213); [9]) [µg/mL]	MIC (S. aureus (SAUR 9213); [10]) [µg/mL]	MIC (S. pyogenes (SPYO 152); [11]) [µg/mL]	MIC (S. pyogenes (SPYO 152); [12]) [µg/mL]	MIC [5, 13] [µg/mL]	MIC [5, 14] [µg/mL]	MIC [6] [µg/mL]
CC(=S)NC[C@H]1CN(c2ccc(N3CCOCC3)c(F)c2)C(=O)O1 [Example 1, (S)-N-[[3-[3-Fluoro-4-(4-morpholinyl)phenyl]-2-oxo-5-oxazolidinyl]methyl]thioacetamide]	157.5 to 158.5 °C	0.25 (≈ 0.707 µM)	0.5 (≈ 1.41 µM)	0.5 (≈ 1.41 µM)	0.5 (≈ 1.41 µM)	8 (≈ 22.6 µM)	1 (≈ 2.83 µM)	1 (≈ 2.83 µM)	1 (≈ 2.83 µM)	0.13 (≈ 0.368 µM)	< 0.125	0.13 (≈ 0.368 µM)	< 0.125	0.25 (≈ 0.707 µM)
CC(=S)NC[C@H]1CN(c2ccc(N3CCN(c4nnc(C)s4)CC3)c(F)c2)C(=O)O1 [Example 2, (S)-N-[[3-[3-Fluoro-4-[4-(5-methyl-1,3,4-thiadiazol-2-yl)-1-piperazinyl]phenyl]-2-oxo-5-oxazolidinyl]methyl]thioacetamide]	222 to 223 °C	4 (≈ 8.88 µM)	4 (≈ 8.88 µM)	4 (≈ 8.88 µM)	8 (≈ 17.8 µM)	> 16	> 16	8 (≈ 17.8 µM)	8 (≈ 17.8 µM)	4 (≈ 8.88 µM)	4 (≈ 8.88 µM)	2 (≈ 4.44 µM)	2 (≈ 4.44 µM)	2 (≈ 4.44 µM)
CC(=S)NC[C@H]1CN(c2ccc(N3CCC4(CC3)NC(=O)NC4=O)c(F)c2)C(=O)O1 [Example 3, (S)-N-[[3-[3-Fluoro-4-[2′,5′-dioxospiro[piperidine-4,4′-imidazolidine]-1-yl]phenyl]-2-oxo-5-oxazolidinyl]methyl]thioacetamide]	–	1 (≈ 2.3 µM)	2 (≈ 4.59 µM)	2 (≈ 4.59 µM)	1 (≈ 2.3 µM)	16 (≈ 36.7 µM)	4 (≈ 9.19 µM)	4 (≈ 9.19 µM)	4 (≈ 9.19 µM)	0.5 (≈ 1.15 µM)	0.5 (≈ 1.15 µM)	0.25 (≈ 0.574 µM)	0.25 (≈ 0.574 µM)	1 (≈ 2.3 µM)
NC(=S)NC[C@H]1CN(c2ccc(N3CCOCC3)c(F)c2)C(=O)O1 [Example 5, (S)-N-[[3-[3-Fluoro-4-(4-morpholinyl)phenyl]-2-oxo-5-oxazolidinyl]methyl]thiourea]	199 to 199.5 °C	0.5 (≈ 1.41 µM)	0.5 (≈ 1.41 µM)	0.5 (≈ 1.41 µM)	0.5 (≈ 1.41 µM)	4 (≈ 11.3 µM)	2 (≈ 5.64 µM)	1 (≈ 2.82 µM)	1 (≈ 2.82 µM)	0.25 (≈ 0.705 µM)	0.25 (≈ 0.705 µM)	< 0.125	< 0.125	0.25 (≈ 0.705 µM)
CNC(=S)NC[C@H]1CN(c2ccc(N3CCOCC3)c(F)c2)C(=O)O1 [Example 6, (S)-N-[[3-[3-Fluoro-4-(4-morpholinyl)phenyl]-2-oxo-5-oxazolidinyl]methyl]-N′-methylthiourea]	158 to 160 °C	2 (≈ 5.43 µM)	2 (≈ 5.43 µM)	2 (≈ 5.43 µM)	2 (≈ 5.43 µM)	16 (≈ 43.4 µM)	8 (≈ 21.7 µM)	2 (≈ 5.43 µM)	2 (≈ 5.43 µM)	1 (≈ 2.71 µM)	1 (≈ 2.71 µM)	0.5 (≈ 1.36 µM)	0.5 (≈ 1.36 µM)	1 (≈ 2.71 µM)
NC(=S)NC[C@H]1CN(c2ccc3c(c2)CCN3C(=O)CO)C(=O)O1 [Example 32, (S)-N-[[3-[1-(Hydroxyacetyl)-5-indolinyl]-2-oxo-5-5 oxazolidinyl]methyl]thiourea]	214 to 215 °C (dec.)	2 (≈ 5.71 µM)	–	4 (≈ 11.4 µM)	2 (≈ 5.71 µM)	8 (≈ 22.8 µM)	2 (≈ 5.71 µM)	–	16 (≈ 45.7 µM)	–	0.25 (≈ 0.713 µM)	–	0.25 (≈ 0.713 µM)	–
NC(=S)NC[C@H]1CN(c2ccc(N3CC[S+]([O-])CC3)c(F)c2)C(=O)O1 [Example 33, (S)-N-[[3-[3-Fluoro-4-(4-thiomorpholinyl)phenyl]-2-oxo-5-oxazolidinyl]methyl]thiourea, thiomorpholine S-oxide]	212 to 213 °C	2 (≈ 5.17 µM)	–	4 (≈ 10.3 µM)	1 (≈ 2.59 µM)	4 (≈ 10.3 µM)	2 (≈ 5.17 µM)	–	4 (≈ 10.3 µM)	–	0.25 (≈ 0.647 µM)	–	0.25 (≈ 0.647 µM)	–
CC(=O)NC[C@H]1CN(c2ccc(N3CCC4(CC3)NC(=O)NC4=O)c(F)c2)C(=O)O1 [reference compound]	–	–	8 (≈ 19.1 µM)	–	–	–	–	16 (≈ 38.1 µM)	–	1 (≈ 2.38 µM)	–	0.5 (≈ 1.19 µM)	–	4 (≈ 9.54 µM)
CC(=O)NC[C@H]1CN(c2ccc(N3CCOCC3)c(F)c2)C(=O)O1 [reference compound]	–	–	2 (≈ 5.93 µM)	–	–	–	–	2 (≈ 5.93 µM)	–	1 (≈ 2.96 µM)	–	0.5 (≈ 1.48 µM)	–	1 (≈ 2.96 µM)
CC(=O)NC[C@H]1CN(c2ccc(N3CCN(c4nnc(C)s4)CC3)c(F)c2)C(=O)O1 [reference compound]	–	–	1 (≈ 2.3 µM)	–	–	–	–	0.5 (≈ 1.15 µM)	–	0.25 (≈ 0.575 µM)	–	0.13 (≈ 0.299 µM)	–	0.25 (≈ 0.575 µM)
